# Data taken from patent publication US20060141629A1, “Method and system for determining platelet-mediated clot formation” (priority 2004, published 2006).
# Legend:
# [1] = tested on: blood from patients receiving coumadin therapy; experiment: PT reagent initiated clot formation (CPA), coumadin patients; format: cell-based
# Experimental: In this assay PT-fibrinogen reagent (Instrumentation Laboratories) was diluted 1:10 in normal saline containing 0.5% BSA to yield a 10% solution. On the upper cap of a CPA well set attached to a magnetic stirrer 1.6 μl of 1M CaCl2 and 3.8; or 4.0 μl of the diluted PT reagent were added. The stirrer assembly was placed in a CPA well containing 130 μl of whole blood and spinning at about 720 rpm started immediately. The spinning was stopped after 2 min. The well was then washed and stained as described above, and clot % surface coverage and clot average size were determined.
# [2] = tested on: vitamin K dependent clotting factors (II, VII, IX and X); experiment: Level of vitamin K dependent clotting factors on coumadin therapy; format: in vivo; settings: patient on coumadin therapy, INR=3.0
# [3] = INR (ratio of PT clotting times) in patients on coumadin; format: in vivo; settings: patients receiving coumadin therapy; normal INR 0.8-1.3
# [4] = tested on: whole blood sample from a healthy subject; experiment: Titration of thrombin inhibitor hirudin with thrombin (CPA); format: cell-based
# Experimental: The levels of thrombin inhibitory drugs such as hirudin and its analogs were determined by titrating the thrombin inhibitor in a whole blood sample with thrombin. To a whole blood sample from a healthy subject hirudin (Sigma) was add to a level of 5×10^−1 anti-thrombin Units/ml. Bovine thrombin (Sigma) (5 Units/ml or 10 Units/ml) was then added to the hirudin treated and untreated whole blood. The thrombin was placed on the upper cap of a CPA well set attached to a magnetic stirrer. The stirrer assembly was placed in a well containing 130 μl of whole blood and spinning at about 720 rpm started immediately. After two min. the spinning was stopped. As described above, the well was washed and stained, and the clot % surface coverage and clot average size determined.
# [5] = tested on: normal blood samples (citrated whole blood); experiment: Thrombin dose response of fibrin clot formation (CPA, image analysis); format: cell-based; settings: FIGS. 2A-2B
# Experimental: In this assay, increasing concentrations of thrombin, which promotes fibrin clot formation, were applied to normal blood samples. In particular, thrombin was placed on the tip of the rotating conical disc, in an amount yielding final concentration according to the points indicated in FIG. 3A and FIG. 3B. The conical disc was then applied in the well containing 130 μL of citrated whole blood, rotated at 720 rpm for two minutes followed by washing and staining of the well. For quantitative determination of fibrin clot formation image analysis (using Impact-R image analysis system, DiaMed, Switzerland) was performed.
# Image analysis of the stained fibrin clots was performed expressing the amount of clot in terms of % of surface covered (SC, %), and the average size (AS, μm^2) of the stained clots.
# [6] = tested on: blood from a patient receiving heparin therapy; experiment: Heparin inhibition of factor Xa clot formation (CPA); format: cell-based
# Experimental: In the following experiment bovine factor Xa (Sigma) and CaCl2 were used to initiate clot formation in whole blood. On the upper cap of a CPA well set was placed 2.2 μl of a factor Xa solution (7×10^−3 unit/ml) and 1.6 μl of 1M CaCl2. The stirrer assembly was placed in a well containing 130 μl of whole blood and spinning at about 720 rpm started immediately. The spinning was stopped after 2 min. The well was then washed and stained, and the clot % surface coverage and the clot average size were determined.
# [7] = PTT of patient receiving heparin therapy; format: in vivo; settings: normal 26-34 sec
# [8] = factor Xa and CaCl2 added, FIG. 5D
compound,measurement,setting,value
CC(=O)CC(c1ccccc1)c1c(O)c2ccccc2oc1=O (centres unmarked) [coumadin],clot formation,"[1]; blood from coumadin patients, absence of clot initiator or CaCl2, FIG. 4C",no clots are formed
same,clot formation,"[1]; blood from coumadin treated patients (INR 3.0), PT reagent added, FIG. 4D",no clot formation was observed
same,vitamin K dependent clotting factors level,[2],25-40%
same,INR,[3],3.0
hirudin,clotting,"[4]; whole blood containing hirudin, thrombin 4×10^−2 Units/ml, FIG. 7B",no clotting was observed
"thrombin: Bovine thrombin (Sigma), promotes fibrin clot formation; clot initiator",thrombin added giving sharp increase in both average size and surface coverage,[5],0.005 IU/ml
same,clotting,"[4]; added thrombin 6×10^−2 Units/ml, whole blood treated with hirudin, FIG. 7D",Clotting was observed
same,added thrombin concentration at which clotting began,"[4]; thrombin added to the whole blood, FIG. 7C",1×10^−2 Units/ml
heparin,clot average size,[6]; [8],30
same,clot formation,[6]; [8],no clot formation was observed
same,surface coverage,[6]; [8],3.0%
same,clot average size,"[6]; no factor Xa or CaCl2, FIG. 5C",24
same,surface coverage,"[6]; no factor Xa or CaCl2, FIG. 5C",8.2%
same,PTT,[7],130 s
